Several values for one entry are separate records, joined by “and”; a condition that tells them apart may be missing. Equal entries are not always repeated.
System: rats
Test: Ugo Basile Tail Flick method (Example 2)
Format: in vivo
Settings: for Tail Flick Time (seconds) after administration: individual rats 1-7; for Tail Flick Time (seconds) after administration, Mean: mean of 7 rats; for Tail Flick Time (seconds) after administration, Median: median of 7 rats
Description: The addition of quinidine to a pharmaceutical composition of morphine, and dextromethorphan was tested using Ugo Basile Tail Flick method. This method is often used for in vivo screening of multiple drugs with analgesic activity. The animal was placed and held on the Ugo Basile Tail Flick instrument surface with the tail straight back and across an infrared light source. The heat source and timer are turned on by a foot pedal press, and automatically switch off when the animal flicks its tail off the emitter. Latency time is measured and analyzed as an analgesic effect. Each preparation was tested in 7 rats.

Compound	Tail Flick Time (seconds) after administration (1 h after administration)	Tail Flick Time (seconds) after administration, Mean (1 h after administration) [s]	Tail Flick Time (seconds) after administration, Median (1 h after administration) [s]	Tail Flick Time (seconds) after administration (3 h after administration)	Tail Flick Time (seconds) after administration, Mean (3 h after administration) [s]	Tail Flick Time (seconds) after administration, Median (3 h after administration) [s]	Tail Flick Time (seconds) after administration (5 h after administration)	Tail Flick Time (seconds) after administration, Mean (5 h after administration) [s]	Tail Flick Time (seconds) after administration, Median (5 h after administration) [s]	Tail Flick Time (seconds) after administration (8 h after administration)	Tail Flick Time (seconds) after administration, Mean (8 h after administration) [s]	Tail Flick Time (seconds) after administration, Median (8 h after administration) [s]	Tail Flick Time (seconds) after administration (10 h after administration)	Tail Flick Time (seconds) after administration, Mean (10 h after administration) [s]	Tail Flick Time (seconds) after administration, Median (10 h after administration) [s]	Tail Flick Time (seconds) after administration (14 h after administration)	Tail Flick Time (seconds) after administration, Mean (14 h after administration) [s]	Tail Flick Time (seconds) after administration, Median (14 h after administration) [s]	Tail Flick Time (seconds) after administration (24 h after administration)	Tail Flick Time (seconds) after administration, Mean (24 h after administration) [s]	also measured
COc1ccc2c(c1)[C@]13CCCC[C@@H]1[C@H](C2)N(C)CC3 [Dextromethorphan]	4.10 s and 3.90 s and 3.30 s and 4.80 s and 5.60 s and 3.70 s and 7.30 s	4.67	4.10	3.90 seconds and 4.60 seconds (2×) and 4.50 seconds and 5.40 seconds and 3.30 seconds and 8.70 seconds	5.00	4.60	4.60 seconds and 6.40 seconds (2×) and 2.90 seconds and 5.10 seconds and 4.10 seconds and 4.50 seconds	4.86	4.60	5.40 s and 5.10 s and 3.70 s and 7.30 s and 4.30 s and 3.80 s and 3.60 s	4.74	4.30	3.10 seconds and 5.50 seconds and 4.30 seconds and 4.80 seconds (2×) and 3.90 seconds and 6.60 seconds	4.71	4.80	3.90 seconds (2×) and 5.20 seconds and 5.60 seconds and 3.80 seconds and 5.10 seconds and 4.10 seconds	4.51	4.10	3.50 seconds (2×) and 4.70 seconds and 4.30 seconds and 5.20 seconds and 3.70 seconds and 3.10 seconds	4.00	Tail Flick Time (seconds) after administration, Median (24 h after administration): 3.70 s
CN1CC[C@]23c4c5ccc(O)c4O[C@H]2[C@@H](O)C=C[C@H]3[C@H]1C5 [Morphine]	5.80 s and 5.10 s and 6.50 s and 30.10 s and 6.80 s and 10.50 s and 3.70 s	9.79	6.50	6.30 s and 7.60 s and 2.70 s and 9.50 s and 5.30 s and 5.90 s and 4.80 s	6.01	5.90	4.80 seconds and 6.60 seconds and 5.90 seconds and 10.90 seconds and 4.90 seconds and 4.60 seconds (2×)	6.04	4.90	6.90 s and 10.50 s and 8.30 s and 8.50 s and 6.70 s and 6.30 s and 3.50 s	7.24	6.90	4.70 s and 4.10 s and 4.80 s and 6.50 s and 6.20 s and 4.20 s and 2.90 s	4.77	4.70	3.50 seconds and 7.50 seconds and 5.10 seconds (2×) and 7.80 seconds and 2.90 seconds and 4.10 seconds	5.14	5.10	4.80 seconds (2×) and 7.60 seconds and 4.30 seconds and 3.40 seconds and 4.90 seconds and 6.10 seconds	5.13	Tail Flick Time (seconds) after administration, Median (1 h after administration, listed as morphine): 6.5 s; Tail Flick Time (seconds) after administration, Median (24 h after administration): 4.80 s
